Assay results taken from PMC3121873, “Insertion of an Esterase Gene into a Specific Locust Pathogen (Metarhizium acridum) Enables It to Infect Caterpillars” (PLoS Pathogens, 2011).

Target: T1, MEST1 (Metarhizium robertsii, UniProt E9ETD4)
T1 construct: gene MAA_03283; full-length cDNA (395 aa, 42244 Da, no signal peptide) in pET28a, His6-tagged, 47 kDa band; E. coli Rosetta (DE3) crude extract, not purified
Assay: spectrophotometric p-nitrophenol release
Assay type: biochemical
Settings: 50 mM potassium phosphate pH 8, 37 °C; crude E. coli extract versus empty-vector extract

T1 sequence (E9ETD4 entry or part of it): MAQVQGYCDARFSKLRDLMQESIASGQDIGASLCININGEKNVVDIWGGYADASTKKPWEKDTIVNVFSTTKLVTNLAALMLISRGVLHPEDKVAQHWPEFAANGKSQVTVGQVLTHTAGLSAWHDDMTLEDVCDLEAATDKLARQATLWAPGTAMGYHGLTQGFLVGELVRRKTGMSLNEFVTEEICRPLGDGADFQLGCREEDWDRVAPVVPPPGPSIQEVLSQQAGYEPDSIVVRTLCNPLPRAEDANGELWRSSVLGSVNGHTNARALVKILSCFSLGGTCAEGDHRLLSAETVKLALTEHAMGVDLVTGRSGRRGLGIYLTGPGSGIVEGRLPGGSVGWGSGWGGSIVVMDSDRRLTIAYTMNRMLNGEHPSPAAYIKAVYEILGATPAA

## CCC(=O)Oc1ccc([N+](=O)[O-])cc1 [p-NP propionate]
  spectrophotometric p-nitrophenol release: highest activity against p-NP propionate (C3), p-NP butyrate (C4) and p-NP caproate (C6)

## CCCC(=O)Oc1ccc([N+](=O)[O-])cc1 [p-NP butyrate]
  spectrophotometric p-nitrophenol release: highest activity against p-NP propionate (C3), p-NP butyrate (C4) and p-NP caproate (C6)
